For the experiment, the target named is F508delCFTR (Homo sapiens, UniProt P13569, DEL508-508). The experiment can be described thus: Cell Surface Expression-Horse Radish Peroxidase (CSE-HRP) assay. The settings on record: CFBE4lo-F508delCFTR-HRP cells; for EC50: 18-24 hours at 33° C., 8-point curve, highest concentration 20 μM, luminescence readout; for Emax: maximum % activity at any tested concentration, normalized to on-plate positive control (3 μM Example 1). More on the design: expressed in transfected cells; host or cells: CFBE41o- human lung derived epithelial cell line, doxycycline-inducible. In kind it is cell-based. The method in brief:
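Following 18-24 h compound exposure at 33° C. Expression was doxycycline-induced beforehand. % activity versus DMSO and a 3 μM corrector control gave maximum activity and EC50 from a variable-Hill sigmoidal fit.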

F508delCFTR, sequence (P13569 with tags, fused parts or gaps DEL508-508): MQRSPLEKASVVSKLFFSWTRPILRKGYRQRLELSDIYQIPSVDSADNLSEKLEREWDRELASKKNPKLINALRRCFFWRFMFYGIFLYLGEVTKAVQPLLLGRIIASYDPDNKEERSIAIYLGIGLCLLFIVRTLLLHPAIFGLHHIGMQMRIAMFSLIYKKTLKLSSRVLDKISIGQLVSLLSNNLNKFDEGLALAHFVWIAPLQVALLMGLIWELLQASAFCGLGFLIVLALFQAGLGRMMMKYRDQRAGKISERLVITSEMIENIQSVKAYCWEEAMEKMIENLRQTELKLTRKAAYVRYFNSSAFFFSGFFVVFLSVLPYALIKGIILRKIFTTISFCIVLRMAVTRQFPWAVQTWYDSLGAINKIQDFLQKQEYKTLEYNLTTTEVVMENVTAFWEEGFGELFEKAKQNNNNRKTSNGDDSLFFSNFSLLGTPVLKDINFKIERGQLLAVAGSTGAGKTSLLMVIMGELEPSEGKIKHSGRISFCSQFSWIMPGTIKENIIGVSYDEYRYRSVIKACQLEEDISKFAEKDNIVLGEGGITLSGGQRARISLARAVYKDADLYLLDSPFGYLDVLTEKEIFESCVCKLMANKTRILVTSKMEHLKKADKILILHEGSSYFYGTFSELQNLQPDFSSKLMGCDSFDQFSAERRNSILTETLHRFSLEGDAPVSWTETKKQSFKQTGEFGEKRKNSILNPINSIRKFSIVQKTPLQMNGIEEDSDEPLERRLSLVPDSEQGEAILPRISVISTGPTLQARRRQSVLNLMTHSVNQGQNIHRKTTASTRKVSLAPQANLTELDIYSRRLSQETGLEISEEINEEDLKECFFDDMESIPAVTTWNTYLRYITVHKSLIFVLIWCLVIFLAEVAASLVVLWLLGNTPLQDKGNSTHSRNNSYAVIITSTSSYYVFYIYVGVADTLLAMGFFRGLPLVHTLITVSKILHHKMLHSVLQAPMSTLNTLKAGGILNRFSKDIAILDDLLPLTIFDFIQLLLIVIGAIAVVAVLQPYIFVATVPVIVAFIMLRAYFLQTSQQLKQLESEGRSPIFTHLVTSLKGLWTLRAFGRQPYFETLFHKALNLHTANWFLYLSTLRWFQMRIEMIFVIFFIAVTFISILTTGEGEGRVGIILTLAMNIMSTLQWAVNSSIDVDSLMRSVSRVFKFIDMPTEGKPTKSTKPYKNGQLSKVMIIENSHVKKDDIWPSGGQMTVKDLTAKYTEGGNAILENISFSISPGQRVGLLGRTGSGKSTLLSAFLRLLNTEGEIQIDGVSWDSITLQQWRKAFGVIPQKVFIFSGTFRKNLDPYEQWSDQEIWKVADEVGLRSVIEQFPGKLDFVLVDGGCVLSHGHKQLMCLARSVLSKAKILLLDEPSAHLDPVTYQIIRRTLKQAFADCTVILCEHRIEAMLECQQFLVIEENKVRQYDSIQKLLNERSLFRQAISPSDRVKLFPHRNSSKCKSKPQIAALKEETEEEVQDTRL

`Cc1ccc2c(c1)O[C@@H](c1cccc(C(=O)N3CCOC(CO)C3)c1)C[C@H]2NC(=O)C1(c2ccc3c(c2)OC(F)(F)O3)CC1` (stereo partly drawn) [Example 53, 1-(2,2-difluoro-1,3-benzodioxol-5-yl)-N-[(2R,4R)-2-(3-{[2-(hydroxymethyl)morpholin-4-yl]carbonyl}phenyl)-7-methyl-3,4-dihydro-2H-chromen-4-yl]cyclopropanecarboxamide]: the EC50 (usually the concentration needed to bring the measured effect to its halfway point) turned out to be 1760 nM and the Emax (as a rule, the size of the effect at its maximum, as opposed to the concentration needed) was determined as 90%.

For the compound `Cc1ccc2c(c1)O[C@@H](c1cccc(C(=O)NCC3(O)CCC3)c1)C[C@H]2NC(=O)C1(c2ccc3c(c2)OC(F)(F)O3)CC1` [Example 54, 3-[(2R,4R)-4-({[1-(2,2-difluoro-1,3-benzodioxol-5-yl)cyclopropyl]carbonyl}amino)-7-methyl-3,4-dihydro-2H-chromen-2-yl]-N-[(1-hydroxycyclobutyl)methyl]benzamide], the EC50 came out at 860 nM and the Emax is 92%.

On to `Cc1ccc2c(c1)O[C@@H](c1cccc(C(=O)N3CC(C)(CO)C3)c1)C[C@H]2NC(=O)C1(c2ccc3c(c2)OC(F)(F)O3)CC1` [Example 55, 1-(2,2-difluoro-1,3-benzodioxol-5-yl)-N-[(2R,4R)-2-(3-{[3-(hydroxymethyl)-3-methylazetidin-1-yl]carbonyl}phenyl)-7-methyl-3,4-dihydro-2H-chromen-4-yl]cyclopropanecarboxamide], for which the EC50 stood at 2110 nM and the maximal effect (Emax) was determined as 101%.

`O=C(NC1CCOc2cc(Br)ccc21)C1(c2ccc3c(c2)OC(F)(F)O3)CC1` (centres unmarked) [Example 56, N-(7-bromo-3,4-dihydro-2H-chromen-4-yl)-1-(2,2-difluoro-1,3-benzodioxol-5-yl)cyclopropanecarboxamide] registered an EC50 of 3120 nM and an Emax of 124%.

For `O=C(NC1C[C@H](c2cccc(CO)c2)Oc2ccccc21)C1(c2ccc3c(c2)OC(F)(F)O3)CC1` (stereo partly drawn) [Example 58, 1-(2,2-difluoro-1,3-benzodioxol-5-yl)-N-{(2R)-2-[3-(hydroxymethyl)phenyl]-3,4-dihydro-2H-chromen-4-yl}cyclopropanecarboxamide], it took 2540 nM to reach a half-maximal effect (EC50) and the Emax stood at 101%.

`COc1ccc2c(c1)OCCC2NC(=O)C1(c2ccc3c(c2)OC(F)(F)O3)CC1` (centres unmarked) [Example 59, 1-(2,2-difluoro-1,3-benzodioxol-5-yl)-N-(7-methoxy-3,4-dihydro-2H-chromen-4-yl)cyclopropanecarboxamide]: a half-maximal response (EC50) required 3660 nM and the Emax was 101%.

`COc1ccc2c(c1)OC(c1ccccc1)CC2NC(=O)C1(c2ccc3c(c2)OC(F)(F)O3)CC1` (centres unmarked) [Example 60, 1-(2,2-difluoro-1,3-benzodioxol-5-yl)-N-(7-methoxy-2-phenyl-3,4-dihydro-2H-chromen-4-yl)cyclopropanecarboxamide] came in with an EC50 of 700 nM and an Emax of 131%.

The compound `COc1ccc2c(c1)OC(c1ccc(Cl)c(Cl)c1)CC2NC(=O)C1(c2ccc3c(c2)OC(F)(F)O3)CC1` (centres unmarked) [Example 61, N-[2-(3,4-dichlorophenyl)-7-methoxy-3,4-dihydro-2H-chromen-4-yl]-1-(2,2-difluoro-1,3-benzodioxol-5-yl)cyclopropanecarboxamide] yielded an EC50 of 2040 nM and an Emax of 132%.

On to `COc1ccc2c(c1)OC(c1ccc(OC)c(OC)c1)CC2NC(=O)C1(c2ccc3c(c2)OC(F)(F)O3)CC1` (centres unmarked) [Example 62, 1-(2,2-difluoro-1,3-benzodioxol-5-yl)-N-[2-(3,4-dimethoxyphenyl)-7-methoxy-3,4-dihydro-2H-chromen-4-yl]cyclopropanecarboxamide], for which the midpoint of the response, the EC50, lay at 690 nM and the Emax amounted to 135%.

In the case of `COc1ccc2c(c1)OC(c1ccc(Cl)cc1)CC2NC(=O)C1(c2ccc3c(c2)OC(F)(F)O3)CC1` (centres unmarked) [Example 63, N-[2-(4-chlorophenyl)-7-methoxy-3,4-dihydro-2H-chromen-4-yl]-1-(2,2-difluoro-1,3-benzodioxol-5-yl)cyclopropanecarboxamide], the EC50 is 630 nM and the Emax stood at 106%.

As for `O=C(NC1CC(c2ccc(C(F)(F)F)cc2)Oc2ccccc21)C1(c2ccc3c(c2)OC(F)(F)O3)CC1` (centres unmarked) [Example 64, 1-(2,2-difluoro-1,3-benzodioxol-5-yl)-N-{2-[4-(trifluoromethyl)phenyl]-3,4-dihydro-2H-chromen-4-yl}cyclopropanecarboxamide], the EC50 is 1610 nM and the Emax worked out at 78%.

As for `O=C(NC1CC(c2ccccc2Cl)Oc2ccccc21)C1(c2ccc3c(c2)OC(F)(F)O3)CC1` (centres unmarked) [Example 65, N-[2-(2-chlorophenyl)-3,4-dihydro-2H-chromen-4-yl]-1-(2,2-difluoro-1,3-benzodioxol-5-yl)cyclopropanecarboxamide], the EC50 stood at 10100 nM and the Emax is 45%.

`O=C(NC1CC(c2ccccc2)Oc2ccccc21)C1(c2ccc3c(c2)OC(F)(F)O3)CC1` (centres unmarked) [Example 67, 1-(2,2-difluoro-1,3-benzodioxol-5-yl)-N-(2-phenyl-3,4-dihydro-2H-chromen-4-yl)cyclopropanecarboxamide] displayed an EC50 of 5890 nM and an Emax of 128%.

Compound `O=C(NC1CC(c2ccc(Cl)cc2)Oc2ccccc21)C1(c2ccc3c(c2)OC(F)(F)O3)CC1` (centres unmarked) [Example 68, N-[2-(4-chlorophenyl)-3,4-dihydro-2H-chromen-4-yl]-1-(2,2-difluoro-1,3-benzodioxol-5-yl)cyclopropanecarboxamide] showed an EC50 of 870 nM and an Emax of 89%.

`COc1ccc(C2CC(NC(=O)C3(c4ccc5c(c4)OC(F)(F)O5)CC3)c3ccccc3O2)cc1OC` (centres unmarked) [Example 69, 1-(2,2-difluoro-1,3-benzodioxol-5-yl)-N-[2-(3,4-dimethoxyphenyl)-3,4-dihydro-2H-chromen-4-yl]cyclopropanecarboxamide] came in with an EC50 of 2120 nM and an Emax of 109%.

In turn, `O=C(NC1CC(c2cccc(Cl)c2)Oc2ccccc21)C1(c2ccc3c(c2)OC(F)(F)O3)CC1` (centres unmarked) [Example 70, N-[2-(3-chlorophenyl)-3,4-dihydro-2H-chromen-4-yl]-1-(2,2-difluoro-1,3-benzodioxol-5-yl)cyclopropanecarboxamide] had an EC50 of 6840 nM and an Emax of 94%.

Take `O=C(NC1CC(c2ccc(F)cc2)Oc2ccccc21)C1(c2ccc3c(c2)OC(F)(F)O3)CC1` (centres unmarked) [Example 71, 1-(2,2-difluoro-1,3-benzodioxol-5-yl)-N-[2-(4-fluorophenyl)-3,4-dihydro-2H-chromen-4-yl]cyclopropanecarboxamide]: the EC50 was determined as 2840 nM and the Emax was found to be 91%.

The compound `COc1ccc2c(c1)C(NC(=O)C1(c3ccc4c(c3)OC(F)(F)O4)CC1)C(Cc1ccc(OC)c(OC)c1)CO2` (centres unmarked) [Example 72, 1-(2,2-difluoro-1,3-benzodioxol-5-yl)-N-[3-(3,4-dimethoxybenzyl)-6-methoxy-3,4-dihydro-2H-chromen-4-yl]cyclopropanecarboxamide] returned an EC50 of 2500 nM and an Emax of 71%.

Compound `O=C(NC1c2ccccc2OCC1Cc1ccccc1)C1(c2ccc3c(c2)OC(F)(F)O3)CC1` (centres unmarked) [Example 73, N-(3-benzyl-3,4-dihydro-2H-chromen-4-yl)-1-(2,2-difluoro-1,3-benzodioxol-5-yl)cyclopropanecarboxamide] had an EC50 of 7630 nM and an Emax of 57%.
